Where “and” joins values, the source holds several entries; their conditions need not be identical. Identical values can stand only once. Entries after “also recorded” stand apart in the source; their conditions may differ. *1 amine or outer side, *2 acyl side, *3 side chain or, on linkers, in order; H or OH if unused. Where a SMILES comes first, the peptide text is derived from it. Bridges are numbered along the chain shown (N, C = ends). Roman numbers before positions name the chains, in order. [ ]: non-standard residue; d: D form. γGlu = O=C(O)[C@H](CCC(=O)[*:2])N[*:1]; Sec = N[C@@H](C[SeH])C(=O)O
Columns and labels:
mice = test: Expression of oxidative phosphorylation (OXPHOS) molecules in liver; assay type: in vivo, mouse
Description: Utilizing the animal model described in Example 2, experiments were conducted to analyze the expression of molecules that regulate oxidative phosphorylation (OXPHOS) in the liver of subjects administered a composition comprising selenium.

[1] = test system: rat brain purified mitochondria; test: Mitochondrial bioenergetics, oxygen consumption rates (Seahorse flux analyzer); assay type: biochemical; set-up: key to Trend of effect on mitochondrial bioenergetics: 1: Positive Trend; 2: Positive/Negative trend; 3: Negative Trend; 4: No Change; settings: for Trend of effect on mitochondrial bioenergetics: Table 7; for STATE V (State VFCCP, complex I dependent maximum respiratory capacity) / STATE Vsucc (complex II dependent maximum respiratory capacity) / STATE III (OCR, ATP synthesis): rat brain purified mitochondria 5 μg/well; for STATE V (State VFCCP, complex I dependent maximum respiratory capacity) / STATE Vsucc (complex II dependent maximum respiratory capacity) / STATE III (OCR, ATP synthesis) / STATE III % change / STATE V % change / STATE Vsucc % change / Effect on mitochondrial activity / bioenergetics profile (in words): 500 ppb; for STATE V (State VFCCP, complex I dependent maximum respiratory capacity): CTRL 182.1; for STATE Vsucc (complex II dependent maximum respiratory capacity): CTRL 350.1; for STATE III (OCR, ATP synthesis): CTRL 432.6; for STATE III % change / STATE V % change / STATE Vsucc % change: vs control; for STATE III % change / STATE V % change / STATE Vsucc % change / Effect on mitochondrial activity / bioenergetics profile (in words): Seahorse
Description: Mitochondria isolated from rat brain were chosen for this purpose for a number of reasons, including a) the ease with which mitochondria can be isolated from soft tissue, such as brain and b) the fact that brain tissue has a high demand for glucose and oxygen.
Experiments were conducted as follows: a variety of concentrations of selenium containing compounds were tested ranging from low (50 ppb), mid (500 ppb) and high (1 ppm). […] Adult rat brain ficoll purified mitochondria were isolated and incubated with the individual selenium containing compounds for 30 minutes at 37 C prior to being loaded into a Seahorse Biosciences flux analyzer in triplicate. OCR (Oxygen Consumption Rates) parameters were measured in three respiratory states including ATP synthesis (State III), Complex I dependent (NADH-driven) Maximum Respiratory Capacity (State VFCCP) and Complex II (FADH-driven) dependent Maximum Respiratory Capacity (State Vsucc). Sea Horse assay was performed as described (See, e.g., Sauerbeck et al., J Neurosci Methods. 2011 May 15; 198(1): 36-43; Seahorse XF, Seahorse Bioscience Inc).

[2] = Oxygen radical absorbance capacity (ORAC) antioxidant assay; settings: Trolox Equivalents; singly or in combination
Description: Briefly, samples of selenium containing compounds (e.g., identified in Example 1) were analyzed using the Trolox assay kit, according to the manufacturer's instructions. Compounds were tested singly or in combination (at concentrations ranging from 0.05 to 5 μM) to examine for potential synergies, antagonisms or purely additive effects.

mitochondria = test: Mitochondrial respiration by oxytherm (Clark-type electrode); assay type: biochemical, rat; settings: 60 μg mitochondrial protein, 500 ppb, 30 minutes
Description: The bioactivities of selenium containing peptide LVSe-MR (C22H44N7O5Se) (#6) and methylselenoadenosine (C11H15N5O3Se) (#9) were analyzed utilizing oxytherm (Clark-type electrode) (See, e.g., Chance and Williams, J Biol Chem, 1955, 217, 383-393; Sullivan et al., J. Bioenerg. Biomembr. 36, 353-356.). Oxytherm analysis allows the determination of oxygen uptake or evolution measurements across a broad range of applications including mitochondrial and cellular respiration. For this experiment, 60 μg mitochondrial protein was co-incubated with either compound LVSe-MR (C22H44N7O5Se) or methylselenoadenosine (500 ppb) or their corresponding equivalent concentrations of respective controls (LVMR and methylthioadenosine, respectively) for 30 minutes prior to injection into the oxytherm chamber. Mitochondrial activity (measured and presented as the rate of mitochondrial respiration observed as % change in nmols O2/min/mg of mitochondrial protein) was measured in the presence of each compound.

[3] = test system: pyruvate dehydrogenase complex (PDHC); test: PDHC enzyme activity in isolated cortical mitochondria; assay type: biochemical, rat
Description: (§1) In order to measure pyruvate dehydrogenase complex (PDHC) activity as well as mitochondrial Complex I activity, cortical mitochondria were isolated from adult SD rats using a ficoll gradient method. Methylselenoadenosine was tested at four concentration ranges (0, 50, 500 and 1000 PPB). All assays were done in triplicate with co-incubation of the individual compounds with mitochondria (60 μg mitochondrial protein/well) in 100 μl assay system using standard techniques in a 96-well fluorescence plate reader.

mitochondrial Complex I = test: Mitochondrial Complex I activity in isolated cortical mitochondria; assay type: biochemical, rat; settings: 0, 50, 500, 1000 PPB
Description: as §1

Complex IV = Complex IV enzyme activity in isolated cortical mitochondria; assay type: biochemical, rat; settings: 0, 50, 500, 1000 PPB

## C[Se]CC[C@H](N)C(=O)O [selenomethionine]
mice
  expression of ATP synthase: significant increase
  expression of ATPase inhibitory factor 1: significantly reduced
  expression of ATPase, H+ transporting lysosomal, V1 subunit H: significantly reduced
  expression of ATPase, H+ transporting, V1 subunit A: significantly reduced
  expression of cytochrome c oxidase, subunit Va: significant increase
  regulation of liver specific mitochondrial activity, compared with selenium enriched yeast: significantly less effective

## N[C@@H](CCC(=O)O)C(=O)N[C@@H](CS)C(=O)O [#30, Glutamylcysteine, reference compound] (H-Glu-Cys-OH)
[1]
  Trend of effect on mitochondrial bioenergetics: #30^2
  STATE V (State VFCCP, complex I dependent maximum respiratory capacity): 153.8
  STATE Vsucc (complex II dependent maximum respiratory capacity): 305.4
  STATE III (OCR, ATP synthesis): 423.2
  STATE III % change: −2.3%
  STATE V % change: −15.5%
  STATE Vsucc % change: −12.7%

## C[Se]CC[C@H](N)C(=O)O [#4, L-Selenomethionine]
[2]
  TE Value: 1.228 TE

## Methylselenoadenosine [#9]
[1]
  Effect on mitochondrial activity / bioenergetics profile (in words): positive increases in all three states of respiration; also recorded: remarkably increase mitochondrial bioenergetics profiles
  Trend of effect on mitochondrial bioenergetics: #9^1
  STATE V (State VFCCP, complex I dependent maximum respiratory capacity): 210.3^1
  STATE Vsucc (complex II dependent maximum respiratory capacity): 437.1^1
  STATE III (OCR, ATP synthesis): 507.8^1
  STATE III % change: 17.3% and 17.3^1%
  STATE V % change: 15.6% and 15.6^1%
  STATE Vsucc % change: 25% and 24.9^1%
mitochondria
  State III increase compared to control: 29.9%
  State VFCCP increase compared to control: 17.3%
  State Vsucc increase compared to control: 15.3%
[3]; 0, 50, 500, 1000 PPB
  PDHC activity (in words): increased
[3]; 0-1000 PPB, depending upon the concentration, p<0.05 at 1000 PPB
  enhanced PDHC enzyme activity: 30-57%
Mitochondrial Complex I
  Complex I activity (in words): increased
Complex IV
  Complex IV enzyme activity (in words): No changes
[2]
  TE Value: 0.722 TE

## N[C@@H](CCC(=O)N[C@@H](C[Se][Se]C[C@H](NC(=O)CC[C@H](N)C(=O)O)C(=O)NCC(=O)O)C(=O)NCC(=O)O)C(=O)O [#8, Selenoglutathione dimer] (I: γGlu-[Sec]-Gly-OH / II: γGlu-[Sec]-Gly-OH; diselenide I:1-II:1)
[1]
  Trend of effect on mitochondrial bioenergetics: #8^4
  STATE V (State VFCCP, complex I dependent maximum respiratory capacity): 192.3
  STATE Vsucc (complex II dependent maximum respiratory capacity): 371.0
  STATE III (OCR, ATP synthesis): 424.0
  STATE III % change: −2.1%
  STATE V % change: 5.7%
  STATE Vsucc % change: 6.0%

## Glutamylselenocysteine dimer [#10]
[1]
  Effect on mitochondrial activity / bioenergetics profile (in words): negative effect
  Trend of effect on mitochondrial bioenergetics: #10^3
  STATE V (State VFCCP, complex I dependent maximum respiratory capacity): 112.7
  STATE Vsucc (complex II dependent maximum respiratory capacity): 254.4
  STATE III (OCR, ATP synthesis): 352.1
  STATE III % change: −18.7%
  STATE V % change: −38.1%
  STATE Vsucc % change: −27.3%
[1]; decrease vs control
  decreased ATP synthesis (State III): ~19%

Reference: patent publication US9833486B2, “Compositions comprising selenium and use of same for the treatment and prevention of disease or conditions associated with mitochondrial dysfunction” (ALLTECH, INC., priority 2013, dated 2017)
